Source: ChEMBL document CHEMBL1126249, “Synthesis and antiviral activity of deoxy analogs of 1-[(2-hydroxyethoxy)methyl]-6-(phenylthio)thymine (HEPT) as potent and selective anti-HIV-1 agents” (J Med Chem, 1992)
pEC50: −log10 of the molar value.

Key:
[1] = system: Human immunodeficiency virus 1; assay: Effective concentration required for 50% protection of MT-4 cells against the cytopathic effect of HIV-1; format: functional, organism-based; conditions: Human immunodeficiency virus 1, MT4
MT4 [2] = assay: Ratio of the EC50 against HIV-1 infected MT-4 cells and CC50 against mock infected MT-4 cells.; format: functional
[3] = Concentration required to reduce viability of mock-infected MT-4 cells; format: functional; conditions: Homo sapiens, MT4
MT4 [4] = assay: Concentration required to inhibit replication of HIV-2 LAV-2rod strain in MT-4 cells; format: functional, cell-based; conditions: Homo sapiens
MT4 [5] = assay: Concentration to required to reduce viability of Mock infected MT-4 cells; format: functional; conditions: Homo sapiens
[6] = Concentration required to reduce viability of Mock infected PBL (peripheral blood lymphocytes) cells.; format: functional; conditions: Homo sapiens
[7] = Concentration required to inhibit replication of HIV-1 HTLV-IIIB strain in PBL (peripheral blood lymphocytes) cells; format: functional, cell-based; conditions: Homo sapiens
MT4 [8] = assay: Cytotoxicity to required to reduce viability of Mock infected MT-4 cells of LAV-2rod strain against HIV-2 replication; format: functional; conditions: Homo sapiens

Row | SMILES | pEC50 [1] | Selectivity index (MT4 [2]) | CC50 [3] [µM] | pEC50 (MT4 [4]) | CC50 (MT4 [5]) [µM] | CC50 [6] [µM] | pEC50 [7] | CC50 (MT4 [8]) [µM]
1 | COCn1c(Sc2ccccc2)c(C)c(=O)[nH]c1=O | 5.68 | 116 | 244 | – | – | – | – | –
2 | CCc1c(Sc2ccccc2)n(COCc2ccccc2)c(=S)[nH]c1=O | 8.11 | >12800 | > 100 | < 4.00 | > 100 | 28 | 8.43 | –
3 | CCCCn1c(Sc2ccccc2)c(C)c(=O)[nH]c1=O | 5.92 | 74 | 89 | – | – | – | – | –
4 | Cc1c(Sc2ccccc2)n(COCc2ccccc2)c(=O)[nH]c1=O | 7.06 | 1080 | – | – | – | – | – | –
5 | CCc1c(Sc2ccccc2)n(COCc2ccccc2)c(=O)[nH]c1=O | 8.23 | 5800 | – | < 4.52 | 30 | 43 | 8.82 | –
6 | COCCOCn1c(Sc2ccccc2)c(C)c(=O)[nH]c1=O | 5.06 | 34 | – | – | – | – | – | –
7 | CCc1c(Sc2cc(C)cc(C)c2)n(COCc2ccccc2)c(=O)[nH]c1=O | 8.49 | >6250 | > 20 | – | – | – | – | –
8 | CCc1c(Sc2ccccc2)n(COCc2ccc(Cl)cc2)c(=S)[nH]c1=O | 7.92 | >1670 | > 20 | – | – | – | – | –
9 | CCc1c(Sc2cc(C)cc(C)c2)n(COCc2ccccc2)c(=S)[nH]c1=O | 8.16 | >2900 | > 20 | – | – | – | – | –
10 | CCCCOCn1c(Sc2ccccc2)c(C)c(=O)[nH]c1=O | 5.33 | 18 | 83 | – | – | – | – | –
11 | Cc1cn([C@H]2C[C@H](N=[N+]=[N-])[C@@H](CO)O2)c(=O)[nH]c1=O [ZIDOVUDINE] | – | 2600 | – | 8.55 | 7.8 | 26 | 8.85 | –
12 | CCc1c(Sc2ccccc2)n(COC2CCCCC2)c(=S)[nH]c1=O | 5.80 | 139 | 223 | – | – | – | – | –
13 | CCOCn1c(Sc2ccccc2)c(CC)c(=O)[nH]c1=O | 7.72 | 8500 | – | < 3.84 | 146 | 93 | 7.96 | –
14 | CCc1c(Sc2ccccc2)n(COC(C)C)c(=O)[nH]c1=O | 6.47 | 421 | 143 | – | – | – | – | –
15 | CCOCn1c(Sc2ccccc2)c(C2CC2)c(=O)[nH]c1=S | 7.02 | 484 | 46 | – | – | – | – | –
16 | CCOCn1c(Sc2cc(Cl)cc(Cl)c2)c(CC)c(=O)[nH]c1=O | 8.13 | 6080 | 45 | – | – | – | – | –
17 | Cc1c(Sc2ccccc2)n(C)c(=O)[nH]c1=O | < 3.82 | <1 | 150 | – | – | – | – | –
18 | Cc1c(Sc2ccccc2)n(COCC[Si](C)(C)C)c(=O)[nH]c1=O | < 4.49 | <1 | 32 | – | – | – | – | –
19 | CCc1c(Sc2ccccc2)n(COCCc2ccccc2)c(=O)[nH]c1=O | 7.02 | 396 | 38 | – | – | – | – | –
20 | Cc1c(O)nc(O)nc1Sc1ccccc1 | < 3.60 | <1 | 250 | – | – | – | – | –

Row | SMILES | pEC50 [1] | Selectivity index (MT4 [2]) | CC50 [3] [µM] | pEC50 (MT4 [4]) | CC50 (MT4 [5]) [µM] | CC50 [6] [µM] | pEC50 [7] | CC50 (MT4 [8]) [µM]
21 | CCc1c(Sc2ccccc2)n(COCCc2ccccc2)c(=S)[nH]c1=O | 7.04 | >220 | > 20 | – | – | – | – | –
22 | CCOCn1c(Sc2ccccc2)c(C)c(=O)[nH]c1=O | 6.48 | 700 | – | – | – | – | – | –
23 | CCn1c(Sc2ccccc2)c(C)c(=O)[nH]c1=O | 5.66 | 43 | 94 | – | – | – | – | –
24 | CCCCCOCCOCn1c(Sc2ccccc2)c(C)c(=O)[nH]c1=O | < 4.26 | <1 | 55 | – | – | – | – | –
25 | CCc1c(Sc2ccccc2)n(COCC2CCCCC2)c(=O)[nH]c1=O | 6.35 | 38 | 17 | – | – | – | – | –
26 | CCOCn1c(Sc2ccccc2)c(C(C)C)c(=O)[nH]c1=O | 7.92 | 8830 | 106 | – | – | – | – | –
27 | CCc1c(Sc2ccccc2)n(CC(C)C)c(=S)[nH]c1=O | 6.66 | >455 | > 100 | – | – | – | – | –
28 | CCc1c(Sc2ccccc2)n(COC2CCCCC2)c(=O)[nH]c1=O | 5.40 | >25 | > 100 | – | – | – | – | –
29 | CCCOCn1c(Sc2ccccc2)c(C)c(=O)[nH]c1=O | 5.44 | 41 | 147 | – | – | – | – | –
30 | CCOCn1c(Sc2ccccc2)c(C(C)C)c(=O)[nH]c1=S | 7.85 | >7140 | > 100 | – | – | – | – | –
31 | CCOCn1c(Sc2ccccc2)c(CC)c(=O)[nH]c1=S | 7.59 | 3120 | 81 | < 4.30 | 50 | 35 | 7.89 | –
32 | CCOCn1c(Sc2cc(C)cc(C)c2)c(CC)c(=O)[nH]c1=O | 8.27 | >18500 | > 100 | < 4.00 | – | 56 | 8.74 | > 100
33 | CCc1c(Sc2ccccc2)n(COCC2CCCCC2)c(=S)[nH]c1=O | 6.46 | >286 | > 100 | – | – | – | – | –
34 | CCOCn1c(Sc2ccccc2)c(C2CC2)c(=O)[nH]c1=O | 7.00 | 2240 | 224 | – | – | – | – | –
35 | CCOCn1c(Sc2cc(Cl)cc(Cl)c2)c(CC)c(=O)[nH]c1=S | 7.89 | 3460 | 45 | – | – | – | – | –
36 | CCOCn1c(Sc2cc(C)cc(C)c2)c(CC)c(=O)[nH]c1=S | 8.36 | >22700 | > 100 | < 4.00 | > 100 | 33 | 8.66 | –
37 | CC(C)c1c(Sc2ccccc2)n(COCc2ccccc2)c(=O)[nH]c1=O | 8.57 | >7410 | > 20 | – | – | – | – | –
38 | CCc1c(Sc2ccccc2)n(COCc2ccc(C)cc2)c(=S)[nH]c1=O | 7.11 | >256 | > 20 | – | – | – | – | –
39 | CC(C)c1c(Sc2ccccc2)n(COCc2ccccc2)c(=S)[nH]c1=O | 8.17 | >2940 | > 20 | – | – | – | – | –
40 | Cc1c(Sc2ccccc2)n(COCCOCc2ccccc2)c(=O)[nH]c1=O | < 4.70 | 2.3 | – | – | – | – | – | –
